Our source for the IC50 and inhibition values is ChEMBL document CHEMBL2146425, “Solid-phase synthesis and biological evaluation of Joro spider toxin-4 from Nephila clavata” (J Nat Prod, 2011).

In general, IC50 refers to the concentration that inhibits the measured activity by half. In general, inhibition refers to the share of the control response that was lost under treatment.

Assay [1] deals with Glutamate NMDA receptor; Grin1/Grin2a (Rattus norvegicus, UniProt P35439+Q00959). Kind of assay: Inhibition of rat GluN1/2A expressed in xenopus laevis oocytes assessed as inhibition of glycine-evoked current at membrane potential of -60 mV by voltage-clamp electrophysiology. The class given is cell-based, Oocyte.
The target of a further assay is Glutamate receptor 1 (Rattus norvegicus, UniProt P19490). Briefly: Inhibition of rat GluA1 expressed in xenopus laevis oocytes assessed as inhibition of glutamate-evoked current at membrane potential of -60 mV by voltage-clamp electrophysiology. In kind it is cell-based, Oocyte.
The target in assay [2] is Glutamate NMDA receptor; Grin1/Grin2a (Rattus norvegicus) (UniProt P35439+Q00959). Kind of assay: Inhibition of rat GluN1/2A expressed in xenopus laevis oocytes assessed as inhibition of glycine-evoked current at membrane potential of -60 mV at 100 uM by voltage-clamp electrophysiology. The class given is cell-based. The following applies: Oocyte.
In assay [3] the target is Glutamate receptor 1 (Rattus norvegicus) (UniProt P19490). Kind of assay: Inhibition of rat GluA1 expressed in xenopus laevis oocytes assessed as inhibition of glutamate-evoked current at membrane potential of -60 mV at 100 uM by voltage-clamp electrophysiology. In kind it is cell-based. The following applies: Oocyte.
Chain of Glutamate receptor 1 (Rattus norvegicus) (P19490 whole entry): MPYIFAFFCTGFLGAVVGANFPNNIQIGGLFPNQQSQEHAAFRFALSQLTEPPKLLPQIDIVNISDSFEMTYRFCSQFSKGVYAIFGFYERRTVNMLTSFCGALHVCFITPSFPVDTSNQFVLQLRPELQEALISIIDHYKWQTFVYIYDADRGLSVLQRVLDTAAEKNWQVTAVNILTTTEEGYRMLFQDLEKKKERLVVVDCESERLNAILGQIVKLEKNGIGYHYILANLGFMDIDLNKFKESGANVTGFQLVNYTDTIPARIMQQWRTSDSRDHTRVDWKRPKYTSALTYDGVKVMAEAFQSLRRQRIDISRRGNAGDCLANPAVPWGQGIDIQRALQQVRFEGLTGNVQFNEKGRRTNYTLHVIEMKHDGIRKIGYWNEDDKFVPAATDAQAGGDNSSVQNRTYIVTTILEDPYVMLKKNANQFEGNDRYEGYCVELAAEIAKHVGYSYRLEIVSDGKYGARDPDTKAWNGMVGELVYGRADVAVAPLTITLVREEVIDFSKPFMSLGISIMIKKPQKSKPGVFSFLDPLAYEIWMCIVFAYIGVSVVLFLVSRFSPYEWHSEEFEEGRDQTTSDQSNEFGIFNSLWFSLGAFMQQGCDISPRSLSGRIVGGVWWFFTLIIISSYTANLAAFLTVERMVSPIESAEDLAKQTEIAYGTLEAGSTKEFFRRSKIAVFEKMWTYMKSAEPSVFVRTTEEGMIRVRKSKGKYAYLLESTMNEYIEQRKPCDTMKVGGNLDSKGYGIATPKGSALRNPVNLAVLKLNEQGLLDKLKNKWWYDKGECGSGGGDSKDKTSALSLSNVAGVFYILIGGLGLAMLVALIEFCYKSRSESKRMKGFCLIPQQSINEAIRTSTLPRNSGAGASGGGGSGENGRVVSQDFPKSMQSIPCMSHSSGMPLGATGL

Chain of Glutamate receptor 1 (P19490 whole entry): as above

On to `N=C(N)NCCC[C@H](N)C(=O)NCCCNCCCNCCCCCNC(=O)[C@H](CC(N)=O)NC(=O)Cc1ccc(O)cc1O`, for which the results for the IC50 (in assay [1]; at Glutamate receptor 1) were 0.074 µM and 0.077 µM, respectively.

Turning to `N=C(N)NCCC[C@H](N)C(=O)N[C@@H](CCCN)C(=O)NCCCCCNC(=O)[C@H](CC(N)=O)NC(=O)Cc1ccc(O)cc1O`, the inhibition in assay [2] and in assay [3] was 25% each time.
